Tests used:
[1] = test system: BMMCs; assay: Avidin / LAMP-1 surface staining of activated BMMCs; format: cell-based, murine; parameters: effect on LAMP-1^+ and avidin^+ BMMCs: dose or concentration left out as unconfirmed
Description: MCs were collected and washed with PBS containing 0.5% BSA and 0.1% sodium azide. Non-specific binding was inhibited using FcBlock (PBS with 2.0% goat serum and 0.25 mg/mL anti-CD16/32 (clone 2.4G2, BD Biosciences). Surface staining was done with anti-CD117 eFluor450 (clone 2B8, ThermoFisher), anti-FcεRI FITC (clone MAR-1, ThermoFisher) and anti-ABCA1 Alexa Fluor 647 (clone 5A1-1422, BioRad). Cells were washed with Wash Buffer (PBS with 0.5% BSA and 0.1% sodium azide). To detect differences in granulated proteins at the cell surface, IgE-loaded MCs were activated with DNP-HSA with or without NKA in Tyrode's Buffer for 30 min, washed with Wash Buffer then stained with Avidin Alexa Fluor488 (Invitrogen, Av488, 0.8 μg/5×10^5 cells) and anti-LAMP-1 PE (clone eBio 1D48, ThermoFisher). Data were acquired on either a LSRII or a Fortessa (BD BioSciences). Analysis was performed with FlowJo v10.4 (BD Biosciences).

[2] = test system: IL-10; assay: IL-10 degradation assays on BMMC supernatants; format: cell-based, murine
Description: To detect early IL-10 release, 4×10^6 cells were incubated in serum free RPMI for a minimum of three hours prior to IgE loading and activation with DNP-HSA (100 ng/mL). Supernatants were collected and IL-10 was detected in accord with manufacturer's recommendations using 1.0% BSA to block and a top standard of 250 pg/mL. The lower limit of detection was 7.8 pg/mL. To evaluate the role of relationship between calpain and IL-10, cell-free supernatants were collected 10 min after activation and incubated with Ac-calpastatin (Ac-Cal; 20 μg/mL, Cayman) or vehicle control. […] To directly test IL-10 proteolysis, MCs were activated for 45 min, cell free supernatants were collected and pulsed with recombinant IL-10 (Biolegend, 250 pg/mL).

[3] = test system: passive cutaneous anaphylaxis (PCA); assay: Passive cutaneous anaphylaxis (PCA) in mice; format: in vivo, mouse
Description: Mouse ears were measured with a micrometer then sensitized with IgE in filter-sterilized PBS (Sigma, clone SPE-7, 20 ng/50 μl/ear) or vehicle control. Twenty-four hours later mice were treated with NKA (10 μg/ear, intradermal) or vehicle (PBS) 3 h prior to Ag (DNP-HSA 100 μg, in 200 μl, intravenous in saline) administration. Data are presented as change in ear thickness between baseline and the indicated time. […] Edema was evaluated histologically and as a function of Evans blue dye extravasation. For histological evaluation, mice were euthanized 2 h after PCA induction. Paraformaldehyde (4.0%) fixed ears were processed for hematoxylin and eosin staining. Pathology was blindly evaluated on an Axiostar plus microscope equipped with epifluorescence and a digital camera (AxioCam; Zeiss). For dye extravasation, Ag was delivered in 1.0% Evans blue dye. Ninety min later mice were euthanized, and ears were excised. Dye was extracted in DriSolv (EMD Millipore) and quantified as absorbance at OD 650 nm. Data are shown as OD650/mg of tissue. Cytokine expression in the skin was investigated 24 h after PCA induction. Mice were euthanized, ears excised, and tissue homogenized in T-PER (ThermoFisher) with Protease Inhibitor Cocktail (Sigma). Protein concentrations were quantified using the BCA Protein Assay (Pierce). The protein profile of skin homogenates was characterized with C-Series Mouse Cytokine Antibody Array C1 (RayBiotech). Densitometry values subtracting the median background from individual spot areas were calculated with ImageStudioLite v5.2.5. The densitometry value from each cytokine spot was divided by the mean densitometry of positive control spots to give relative protein expression. Data were from each experiment were normalized as (Relative Expression [Treated]/Relative expression [Vehicle]). In some experiments, ELISAs were performed on skin homogenates. Neutrophil influx was evaluated as a function of myeloperoxidase (MPO) activity. To detect MPO activity, tissue was homogenized with a Next Advance Bullet Homogenizer in 50 mM KPG4 with 50 mM […]. Homogenate was incubated with ODP (Sigma) with 0.005% H2O2 for 30 minutes. Enzymatic reactions were stopped with 1N HCl and absorbance was read at 450 nm.

[4] = 24 h after PCA induction, NKA pretreatment
[5] = 24 h after PCA induction, NKA pretreatment, listed as Neurokinin A
[6] = NKA 10 μg/ear intradermal 3 h prior to Ag

**Q.** Which results are given for `COc1ccc(Cl)cc1C(=O)NCCc1ccc(S(=O)(=O)NC(=O)NC2CCCCC2)cc1` [glyburide, reference compound]?
**A.** effect on LAMP-1^+ and avidin^+ BMMCs ([1]; IgE-activated 30 minutes): less robust effect; IL-10 levels ([2]; increasing concentrations of glyburide 10 min prior to activation, supernatants 30 min after activation): increasing; ear thickness at 24 h ([3]; glyburide 2.5 mg/kg i.p. 3 h prior to PCA induction): significantly reduced

**Q.** What does the source list for Neurokinin A [NKA]?
**A.** avidin^+ granules and LAMP-1 on the cell surface ([1]; 30 min after activation, with or without NKA): equivalent amounts; early IL-10 in supernatants ([2]; 60 min after activation with NKA): significantly more IL-10; degradation of early IL-10 / pulsed rIL-10 by released proteases ([2]; cell-free supernatants pulsed with rIL-10 for 30 min): disrupted; IFNγ levels in skin (protein array) [3, 4]: not statistically significant, IFNγ levels increased; IL-3 in IgE-treated skin (protein array) [3, 4]: significantly reduced; IL-6 in IgE-treated skin (protein array) [3, 4]: significantly reduced; IL-13 in IgE-treated skin (protein array) [3, 4]: down-regulated; MCP1 in IgE-treated skin (protein array) [3, 4]: significantly reduced; RANTES in IgE-treated skin (protein array) [3, 4]: significantly reduced; TNF in IgE-treated skin (protein array) [3, 4]: down-regulated; IL-13 in IgE-treated skin (protein array) [3, 5]: significantly reduced; TNF in IgE-treated skin (protein array) [3, 5]: significantly reduced; Evans blue dye extravasation ([3]; Mcpt5Cre^+×IL10/l mice): no effect; Evans blue dye extravasation ([3]; Mcpt5Cre^+×IL10^WT mice): inhibited; IL-13 in the skin by ELISA ([3]; Mcpt5 Cre^+×IL10^WT mice, 24 h): significantly downregulated; TNF in the skin by ELISA ([3]; Mcpt5 Cre^+×IL10^WT mice, 24 h): significantly downregulated; immune-regulatory capacity (ear measurements) at 2 h and 24 h after PCA induction ([3]; Mcpt5Cre^+×IL10^fl/fl mice): lost; ear thickness, early (1-2 hours) phase of PCA [3, 6]: reduced ear thickness; ear thickness, late phase of PCA (24 h) [3, 6]: reduced ear thickness; Evans blue dye extravasation ([3]; NKA 10 μg/ear intradermal 3 h prior to Ag, 90 min after Ag): reduced Evans blue dye extravasation; edema in histological sections, early phase of PCA ([3]; NKA 10 μg/ear intradermal 3 h prior to Ag, 2 h after PCA induction): a reduction in edema; IL-10 protein in total skin homogenates ([3]; NKA pretreated mice): did not increase; myeloperoxidase activity in skin homogenates, 24 h ([3]; NKA pretreatment): reduced myeloperoxidase activity; neutrophil influx in histological sections, late phase (24 h) ([3]; NKA pretreatment): reduced neutrophil influx; IL-13 in the skin ([3]; absence of MC-derived IL-10): increased; TNF in the skin ([3]; absence of MC-derived IL-10): increased; PCA, including degranulation-associated edema ([3]; overall statement): fully inhibited
